Measured values as given in patent publication US20130244999A1, “Substituted Heterocyclic Compounds” (Incyte Corporation, priority 2008, published 2013).

target: T1, histamine H4 receptor (Homo sapiens, UniProt Q9H3N8); assay: Inhibition of histamine H4 receptor (Table A1; H4 membrane binding assay); settings: histamine H4 receptor; "> a" = exceeds experiment limit
T1 construct: expressed in transfected cells; host or cells: HEK293SFM cells (membrane preparation)
Method in brief: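 Membranes came from recombinant HEK293SFM cells expressing human H4, homogenized in 50 mM Tris-HCl pH 7.5 with protease inhibitors. Nonspecific binding was set with 1000× unlabeled ligand. Bound radioligand was separated on PEI-treated GF/B filters and counted by liquid scintillation.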

Structure (SMILES)	IC50
CC1Cc2ccc(-c3cnn(C)c3)cc2CN1c1cc(N2CC3CC2CN3)nc(N)n1 (centres unmarked) [Example 123, 4-(2,5-Diazabicyclo[2.1.1]hept-2-yl)-6-[3-methyl-7-(1-methyl-1H-pyrazol-4-yl)-3,4-dihydroisoquinolin-2(1H)-yl]pyrimidin-2-amine]	0.124 µM
CN[C@@H]1CCN(c2cc(N3Cc4cc(-c5cnn(C)c5)ccc4CC3C)nc(N)n2)C1 (stereo partly drawn) [Example 124, 4-[(3R)-3-(Methylamino)pyrrolidin-1-yl]-6-[3-methyl-7-(1-methyl-1H-pyrazol-4-yl)-3,4-dihydroisoquinolin-2(1H)-yl]pyrimidin-2-amine]	0.121 µM
CC1Cc2ccc(-c3cnn(C)c3)cc2CN1c1cc(N2CCCN(C)CC2)nc(N)n1 (centres unmarked) [Example 125, 4-(4-Methyl-1,4-diazepan-1-yl)-6-[3-methyl-7-(1-methyl-1H-pyrazol-4-yl)-3,4-dihydroisoquinolin-2(1H)-yl]pyrimidin-2-amine]	0.056 µM
CC1Cc2ccc(-c3cnn(C)c3)cc2CN1c1cc(N2CCN3CCCC3C2)nc(N)n1 (centres unmarked) [Example 126, 4-(Hexahydropyrrolo[1,2-a]pyrazin-2(1H)-yl)-6-[3-methyl-7-(1-methyl-1H-pyrazol-4-yl)-3,4-dihydroisoquinolin-2(1H)-yl]pyrimidin-2-amine]	0.066 µM
CNC(=O)c1ccc(-c2cc3c(cc2F)CCN(c2cc(N4CCN(C)CC4)nc(N)n2)C3)cn1 [Example 127, 5-{2-[2-Amino-6-(4-methylpiperazin-1-yl)pyrimidin-4-yl]-6-fluoro-1,2,3,4-tetrahydroisoquinolin-7-yl}-N-methylpyridine-2-carboxamide]	0.104 µM
CN1CCN(c2cc(N3CCc4cc(F)c(-c5cccc(C(=O)N(C)C)c5)cc4C3)nc(N)n2)CC1 [Example 128, 3-{2-[2-Amino-6-(4-methylpiperazin-1-yl)pyrimidin-4-yl]-6-fluoro-1,2,3,4-tetrahydroisoquinolin-7-yl}-N,N-dimethylbenzamide]	0.148 µM
CC1Cc2ccc(-c3ccc4c(c3)CN(C3CC3)C4=O)cc2CN1c1cc(N2CCN(C)CC2)nc(N)n1 (centres unmarked) [Example 129, 5-{2-[2-Amino-6-(4-methylpiperazin-1-yl)pyrimidin-4-yl]-3-methyl-1,2,3,4-tetrahydroisoquinolin-7-yl}-2-cyclopropylisoindolin-1-one]	0.112 µM
CNC(=O)c1ccc(-c2ccc3c(c2)CN(c2cc(N4CCN(C)CC4)nc(N)n2)C(C)C3)cc1C (centres unmarked) [Example 130, 4-{2-[2-Amino-6-(4-methylpiperazin-1-yl)pyrimidin-4-yl]-3-methyl-1,2,3,4-tetrahydroisoquinolin-7-yl}-N,2-dimethylbenzamide]	0.069 µM
CC1Cc2ccc(-c3ccc4c(c3)NC(=O)CO4)cc2CN1c1cc(N2CCN(C)CC2)nc(N)n1 (centres unmarked) [Example 131, 6-{2-[2-amino-6-(4-methylpiperazin-1-yl)pyrimidin-4-yl]-3-methyl-1,2,3,4-tetrahydroisoquinolin-7-yl}-2H-1,4-benzoxazin-3(4H)-one]	0.03 µM
CC1Cc2ccc(-c3ccc4c(c3)N(C)C(=O)CO4)cc2CN1c1cc(N2CCN(C)CC2)nc(N)n1 (centres unmarked) [Example 132, 6-{2-[2-Amino-6-(4-methylpiperazin-1-yl)pyrimidin-4-yl]-3-methyl-1,2,3,4-tetrahydroisoquinolin-7-yl}-4-methyl-2H-1,4-benzoxazin-3(4H)-one]	0.039 µM
CNC(=O)c1cnc(-c2ccc3c(c2)CN(c2cc(N4CCN(C)CC4)nc(N)n2)C(C)C3)s1 (centres unmarked) [Example 133, 2-{2-[2-amino-6-(4-methylpiperazin-1-yl)pyrimidin-4-yl]-3-methyl-1,2,3,4-tetrahydroisoquinolin-7-yl}-N-methyl-1,3-thiazole-5-carboxamide]	0.059 µM
CC1Cc2ccc(-c3ncc(C(=O)N(C)C)s3)cc2CN1c1cc(N2CCN(C)CC2)nc(N)n1 (centres unmarked) [Example 134, 2-{2-[2-Amino-6-(4-methylpiperazin-1-yl)pyrimidin-4-yl]-3-methyl-1,2,3,4-tetrahydroisoquinolin-7-yl}-N,N-dimethyl-1,3-thiazole-5-carboxamide]	0.038 µM
CC1Cc2ccc(-c3cnc4[nH]cnc4c3)cc2CN1c1cc(N2CCN(C)CC2)nc(N)n1 (centres unmarked) [Example 135, 4-[7-(3H-Imidazo[4,5-b]pyridin-6-yl)-3-methyl-3,4-dihydroisoquinolin-2(1H)-yl]-6-(4-methylpiperazin-1-yl)pyrimidin-2-amine]	0.048 µM

More lines, now with the values ahead:

IC50	Structure (SMILES)
0.068 µM	CC1Cc2ccc(C3=CCN(C(=O)NC4CCCC4)CC3)cc2CN1c1cc(N2CCN(C)CC2)nc(N)n1 (centres unmarked) [Example 136, 4-{2-[2-Amino-6-(4-methylpiperazin-1-yl)pyrimidin-4-yl]-3-methyl-1,2,3,4-tetrahydroisoquinolin-7-yl}-N-cyclopentyl-3,6-dihydropyridine-1(2H)-carboxamide]
0.084 µM	CC1Cc2ccc(C3=CCN(c4cc(C#N)ccn4)CC3)cc2CN1c1cc(N2CCN(C)CC2)nc(N)n1 (centres unmarked) [Example 137, 4-{2-[2-Amino-6-(4-methylpiperazin-1-yl)pyrimidin-4-yl]-3-methyl-1,2,3,4-tetrahydroisoquinolin-7-yl}-3,6-dihydro-2H-1,2′-bipyridine-4′-carbonitrile]
0.064 µM	CC1Cc2ccc(C3CCN(C(=O)CC4CCCC4)CC3)cc2CN1c1cc(N2CCN(C)CC2)nc(N)n1 (centres unmarked) [Example 138, 4-[7-[1-(Cyclopentylacetyl)piperidin-4-yl]-3-methyl-3,4-dihydroisoquinolin-2(1H)-yl]-6-(4-methylpiperazin-1-yl)pyrimidin-2-amine]
0.054 µM	CC(C)OC(=O)N1CCC(c2ccc3c(c2)CN(c2cc(N4CCN(C)CC4)nc(N)n2)C(C)C3)CC1 (centres unmarked) [Example 139, Isopropyl 4-{2-[2-amino-6-(4-methylpiperazin-1-yl)pyrimidin-4-yl]-3-methyl-1,2,3,4-tetrahydroisoquinolin-7-yl}piperidine-1-carboxylate]
0.08 µM	CC(C)NC(=O)N1CCC(c2ccc3c(c2)CN(c2cc(N4CCN(C)CC4)nc(N)n2)C(C)C3)CC1 (centres unmarked) [Example 140, 4-{2-[2-Amino-6-(4-methylpiperazin-1-yl)pyrimidin-4-yl]-3-methyl-1,2,3,4-tetrahydroisoquinolin-7-yl}-N-isopropylpiperidine-1-carboxamide]
0.04 µM	CC1Cc2ccc(C3CCN(C(=O)N(C)C)CC3)cc2CN1c1cc(N2CCN(C)CC2)nc(N)n1 (centres unmarked) [Example 141, 4-{2-[2-Amino-6-(4-methylpiperazin-1-yl)pyrimidin-4-yl]-3-methyl-1,2,3,4-tetrahydroisoquinolin-7-yl}-N,N-dimethylpiperidine-1-carboxamide]
0.024 µM	CC1Cc2ccc(C3CCN(C(=O)N(C)C)CC3)cc2CN1c1cc(N2CCN(C)CC2)nc(N)n1 (centres unmarked) [Example 144, 4-{2-[2-Amino-6-(4-methylpiperazin-1-yl)pyrimidin-4-yl]-3-methyl-1,2,3,4-tetrahydroisoquinolin-7-yl}-N,N-dimethylpiperidine-1-carboxamide]
0.036 µM	CCNC(=O)N1CCC(c2ccc3c(c2)CN(c2cc(N4CCN(C)CC4)nc(N)n2)C(C)C3)CC1 (centres unmarked) [Example 145, 4-{2-[2-Amino-6-(4-methylpiperazin-1-yl)pyrimidin-4-yl]-3-methyl-1,2,3,4-tetrahydroisoquinolin-7-yl}-N-ethylpiperidine-1-carboxamide]
0.0228 µM	CC(=O)N1CCC(c2ccc3c(c2)CN(c2cc(N4CCN(C)CC4)nc(N)n2)C(C)C3)CC1 (centres unmarked) [Example 146, 4-[7-(1-Acetylpiperidin-4-yl)-3-methyl-3,4-dihydroisoquinolin-2 (1H)-yl]-6-(4-methylpiperazin-1-yl)pyrimidin-2-amine]
0.0121 µM	COC(=O)N1CCC(c2ccc3c(c2)CN(c2cc(N4CCN(C)CC4)nc(N)n2)C(C)C3)CC1 (centres unmarked) [Example 147, Methyl 4-{2-[2-amino-6-(4-methylpiperazin-1-yl)pyrimidin-4-yl]-3-methyl-1,2,3,4-tetrahydroisoquinolin-7-yl}piperidine-1-carboxylate]
0.0306 µM	CC1Cc2ccc(C3CCN(S(C)(=O)=O)CC3)cc2CN1c1cc(N2CCN(C)CC2)nc(N)n1 (centres unmarked) [Example 148, 4-[3-Methyl-7-[1-(methylsulfonyl)piperidin-4-yl]-3,4-dihydroisoquinolin-2(1H)-yl]-6-(4-methylpiperazin-1-yl)pyrimidin-2-amine]
0.0261 µM	CCC(=O)N1CCC(c2ccc3c(c2)CN(c2cc(N4CCN(C)CC4)nc(N)n2)C(C)C3)CC1 (centres unmarked) [Example 149, 4-(4-Methylpiperazin-1-yl)-6-[3-methyl-7-(1-propionylpiperidin-4-yl)-3,4-dihydroisoquinolin-2 (1H)-yl]pyrimidin-2-amine]
0.0225 µM	CC1Cc2ccc(C3CCN(C(=O)C4CC4)CC3)cc2CN1c1cc(N2CCN(C)CC2)nc(N)n1 (centres unmarked) [Example 150, 4-[7-[1-(Cyclopropylcarbonyl)piperidin-4-yl]-3-methyl-3,4-dihydroisoquinolin-2(1H)-yl]-6-(4-methylpiperazin-1-yl)pyrimidin-2-amine]
0.0421 µM	CNC(=O)N1CCC(c2ccc3c(c2)CN(c2cc(N4CCN(C)CC4)nc(N)n2)C(C)C3)CC1 (centres unmarked) [Example 151, 4-{2-[2-Amino-6-(4-methylpiperazin-1-yl)pyrimidin-4-yl]-3-methyl-1,2,3,4-tetrahydroisoquinolin-7-yl}-N-methylpiperidine-1-carboxamide]
0.0176 µM	CCS(=O)(=O)N1CCC(c2ccc3c(c2)CN(c2cc(N4CCN(C)CC4)nc(N)n2)C(C)C3)CC1 (centres unmarked) [Example 152, 4-[7-[1-(Ethylsulfonyl)piperidin-4-yl]-3-methyl-3,4-dihydroisoquinolin-2(1H)-yl]-6-(4-methylpiperazin-1-yl)pyrimidin-2-amine]
0.027 µM	CC1Cc2ccc(-c3ccnc(C(=O)N4CC(O)C4)c3)cc2CN1c1cc(N2CCN(C)CC2)nc(N)n1 (centres unmarked) [Example 153, 1-[(4-{2-[2-Amino-6-(4-methylpiperazin-1-yl)pyrimidin-4-yl]-3-methyl-1,2,3,4-tetrahydroisoquinolin-7-yl}pyridin-2-yl)carbonyl]azetidin-3-ol]
